Experiments:
Type in all cases: cell-based
Bcl-xL [1] = molecular target: T1, Bcl-xL (Homo sapiens, UniProt Q07817); test: growth of yeast co-expressing Bax and Bcl-xL
Bcl-2 = Bcl-2 (Homo sapiens, UniProt P10415); test: growth of yeast co-expressing Bax and Bcl-2
Bcl-xL [2] = molecular target: T1, Bcl-xL; test: growth and ATP content of yeast co-expressing Bax and Bcl-xL

T1 sequence (Q07812 whole entry): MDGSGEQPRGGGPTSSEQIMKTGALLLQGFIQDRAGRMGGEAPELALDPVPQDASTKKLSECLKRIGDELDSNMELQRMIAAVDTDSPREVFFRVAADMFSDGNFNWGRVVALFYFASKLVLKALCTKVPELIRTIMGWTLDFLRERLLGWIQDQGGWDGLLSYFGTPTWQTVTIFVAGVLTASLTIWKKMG
T1 sequence (Q07817 whole entry): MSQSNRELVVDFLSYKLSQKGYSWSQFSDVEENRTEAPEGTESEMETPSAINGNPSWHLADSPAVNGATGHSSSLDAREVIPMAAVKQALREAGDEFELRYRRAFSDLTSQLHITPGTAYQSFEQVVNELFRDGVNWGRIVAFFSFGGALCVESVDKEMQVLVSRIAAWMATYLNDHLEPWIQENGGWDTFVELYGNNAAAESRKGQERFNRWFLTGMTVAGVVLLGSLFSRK
Sequence of Bcl-2 (Q07812 whole entry): as the sequence (Q07812 whole entry) above
Sequence of Bcl-2 (P10415 whole entry): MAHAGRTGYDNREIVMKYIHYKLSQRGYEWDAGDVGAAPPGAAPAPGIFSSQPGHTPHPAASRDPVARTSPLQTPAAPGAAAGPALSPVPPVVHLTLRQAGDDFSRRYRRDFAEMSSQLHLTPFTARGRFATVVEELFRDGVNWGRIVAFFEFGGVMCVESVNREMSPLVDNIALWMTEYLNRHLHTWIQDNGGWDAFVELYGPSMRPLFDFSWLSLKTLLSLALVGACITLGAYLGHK

IC50 (Bcl-xL [1]) | IC50 (Bcl-2) | IC50 (Bcl-xL [2]) | Structure (SMILES)
~ just under 1 μM | ~ just over 1 μM |  | CC1(C)CCC(c2ccc(Cl)cc2)=C(CN2CCN(c3ccc(C(=O)NS(=O)(=O)c4ccc(N[C@H](CCN5CCOCC5)CSc5ccccc5)c(S(=O)(=O)C(F)(F)F)c4)cc3)CC2)C1 [ABT-263]
 |  | ~ just under 1 μM | CN(C)CC[C@H](CSc1ccccc1)Nc1ccc(S(=O)(=O)NC(=O)c2ccc(N3CCN(Cc4ccccc4-c4ccc(Cl)cc4)CC3)cc2)cc1[N+](=O)[O-] [ABT-737]
